Measured values published in PubChem BioAssay AID1963985 (Molecular Pharmacology Branch, DTP, NCI, 2024).
Values belong to the compound of their own block, whether it stands above or below them.

Test system: 252836-082-R-J2-PDC tumor spheroids, viability
Experiment: Anticancer human tumor 252836-082-R-J2-PDC patient-derived head and neck squamous cell carcinoma cell line growth inhibition [PI3K]
Details: spheroids with HUVEC and MSC; for IC50: curve of first compound; for viability, T/C: stronger effect = lower value
In short: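 High-throughput combination screen: PI3K inhibitors crossed with targeted small molecules on complex spheroids of tumor cells, HUVEC and MSCs at 37 degrees C, 5% CO2. Top concentration was at or near clinical Cmax (otherwise 10 microM), with half-log decrements.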

[1] = second compound 0.0316 µM, first compound 0.0316 µM
[2] = second compound 0.0316 µM, first compound 0.1 µM
[3] = second compound 0.0316 µM, first compound 0.316 µM
[4] = second compound 0.0316 µM, first compound 1 µM
[5] = second compound 0.0316 µM, first compound 3.16 µM
[6] = second compound 0.0316 µM, first compound 10 µM
[7] = second compound 0.1 µM, first compound 0.0316 µM
[8] = second compound 0.1 µM, first compound 0.1 µM
[9] = second compound 0.1 µM, first compound 0.316 µM
[10] = second compound 0.1 µM, first compound 1 µM
[11] = second compound 0.1 µM, first compound 3.16 µM
[12] = second compound 0.1 µM, first compound 10 µM
[13] = second compound 0.316 µM, first compound 0.0316 µM
[14] = second compound 0.316 µM, first compound 0.1 µM
[15] = second compound 0.316 µM, first compound 0.316 µM
[16] = second compound 0.316 µM, first compound 1 µM
[17] = second compound 0.316 µM, first compound 3.16 µM
[18] = second compound 0.316 µM, first compound 10 µM
[19] = second compound 1 µM, first compound 0.0316 µM
[20] = second compound 1 µM, first compound 0.1 µM
[21] = second compound 1 µM, first compound 0.316 µM
[22] = second compound 1 µM, first compound 1 µM
[23] = second compound 1 µM, first compound 3.16 µM
[24] = second compound 1 µM, first compound 10 µM
[25] = second compound 3.16 µM, first compound 0.0316 µM
[26] = second compound 3.16 µM, first compound 0.1 µM
[27] = second compound 3.16 µM, first compound 0.316 µM
[28] = second compound 3.16 µM, first compound 1 µM
[29] = second compound 3.16 µM, first compound 3.16 µM
[30] = second compound 3.16 µM, first compound 10 µM
[31] = second compound 10 µM, first compound 0.0316 µM
[32] = second compound 10 µM, first compound 0.1 µM
[33] = second compound 10 µM, first compound 0.316 µM
[34] = second compound 10 µM, first compound 1 µM
[35] = second compound 10 µM, first compound 3.16 µM
[36] = second compound 10 µM, first compound 10 µM
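Also: spheroids exposed to agents for seven days before readout.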
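For viability, T/C in this document: percent of vehicle DMSO control viability so 100% = untreated growth.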

IC50 (second compound 0.0316 µM): > 10 µM
IC50 (second compound 0.1 µM): > 10 µM
IC50 (second compound 0.316 µM): > 10 µM
IC50 (second compound 1 µM): > 10 µM
IC50 (second compound 3.16 µM): < 0.0316 µM
IC50 (second compound 10 µM): < 0.0316 µM
Structure (SMILES): C[C@@H](NC(=O)c1ncnc(N)c1Cl)c1ncc(C(=O)Nc2cc(C(F)(F)F)c(Cl)cn2)s1 + Cc1nc(NC(=O)N2CCCC2C(N)=O)sc1-c1ccnc(C(C)(C)C(F)(F)F)c1
viability, T/C [1]: 95.5%
viability, T/C [2]: 84.1%
viability, T/C [3]: 88.9%
viability, T/C [4]: 81.2%
viability, T/C [5]: 76.9%
viability, T/C [6]: 82.5%
viability, T/C [7]: 79.7%
viability, T/C [8]: 70.8%
viability, T/C [9]: 85.2%
viability, T/C [10]: 74.1%
viability, T/C [11]: 85.9%
viability, T/C [12]: 74.1%
viability, T/C [13]: 72%
viability, T/C [14]: 79.2%
viability, T/C [15]: 69.8%
viability, T/C [16]: 78.4%
viability, T/C [17]: 74.7%
viability, T/C [18]: 69.7%
viability, T/C [19]: 58.6%
viability, T/C [20]: 62%
viability, T/C [21]: 61.9%
viability, T/C [22]: 54.9%
viability, T/C [23]: 61.3%
viability, T/C [24]: 50.8%
viability, T/C [25]: 40%
viability, T/C [26]: 48.6%
viability, T/C [27]: 43.2%
viability, T/C [28]: 42.5%
viability, T/C [29]: 42.4%
viability, T/C [30]: 42.9%
viability, T/C [31]: 35.2%
viability, T/C [32]: 39.6%
viability, T/C [33]: 35.2%
viability, T/C [34]: 30.6%
viability, T/C [35]: 23.4%
viability, T/C [36]: 12.6%

IC50 (second compound 0.00316 µM): > 10 µM
IC50 (second compound 0.01 µM): > 10 µM
IC50 (second compound 0.0316 µM): > 10 µM
IC50 (second compound 0.1 µM): < 0.0316 µM
IC50 (second compound 0.316 µM): < 0.0316 µM
IC50 (second compound 1 µM): < 0.0316 µM
Structure (SMILES): CC(Cn1ccc(-c2ccc(C#N)c(Cl)c2)n1)NC(=O)c1cc(C(C)O)[nH]n1 (stereo unspecified) + COc1c(OCCCN2CCOCC2)ccc2c3n(c(=NC(=O)c4cnc(N)nc4)nc12)CCN3
viability, T/C (second compound 0.00316 µM, first compound 0.0316 µM): 102%
viability, T/C (second compound 0.00316 µM, first compound 0.1 µM): 90.5%
viability, T/C (second compound 0.00316 µM, first compound 0.316 µM): 101%
viability, T/C (second compound 0.00316 µM, first compound 1 µM): 94.4%
viability, T/C (second compound 0.00316 µM, first compound 3.16 µM): 91.4%
viability, T/C (second compound 0.00316 µM, first compound 10 µM): 84.9%
viability, T/C (second compound 0.01 µM, first compound 0.0316 µM): 81.7%
viability, T/C (second compound 0.01 µM, first compound 0.1 µM): 72.4%
viability, T/C (second compound 0.01 µM, first compound 0.316 µM): 87.2%
viability, T/C (second compound 0.01 µM, first compound 1 µM): 93.3%
viability, T/C (second compound 0.01 µM, first compound 3.16 µM): 93%
viability, T/C (second compound 0.01 µM, first compound 10 µM): 68.9%
viability, T/C [1]: 65.3%
viability, T/C [2]: 62.8%
viability, T/C [3]: 62.6%
viability, T/C [4]: 63.9%
viability, T/C [5]: 68.3%
viability, T/C [6]: 56.1%
viability, T/C [7]: 35.3%
viability, T/C [8]: 43.5%
viability, T/C [9]: 36.6%
viability, T/C [10]: 45.3%
viability, T/C [11]: 35.6%
viability, T/C [12]: 41.4%
viability, T/C [13]: 15.6%
viability, T/C [14]: 15.8%
viability, T/C [15]: 18.3%
viability, T/C [16]: 20.3%
viability, T/C [17]: 16.3%
viability, T/C [18]: 16.5%
viability, T/C [19]: 5.58%
viability, T/C [20]: 5.76%
viability, T/C [21]: 4.24%
viability, T/C [22]: 4.31%
viability, T/C [23]: 6.92%
viability, T/C [24]: 5.37%

IC50 (second compound 0.0316 µM): > 10 µM
IC50 (second compound 0.1 µM): > 10 µM
IC50 (second compound 0.316 µM): > 10 µM
IC50 (second compound 1 µM): 4.45 µM
IC50 (second compound 3.16 µM): < 0.0316 µM
IC50 (second compound 10 µM): < 0.0316 µM
Structure (SMILES): C#Cc1c(F)ccc2cc(O)cc(-c3ncc4c(N5CC6CCC(C5)N6)nc(OCC56CCCN5CC(F)C6)nc4c3F)c12 (stereo unspecified) + Cc1nc(NC(=O)N2CCCC2C(N)=O)sc1-c1ccnc(C(C)(C)C(F)(F)F)c1
viability, T/C [1]: 96.4%
viability, T/C [2]: 82.3%
viability, T/C [3]: 98.8%
viability, T/C [4]: 76.5%
viability, T/C [5]: 72.2%
viability, T/C [6]: 69.2%
viability, T/C [7]: 92.4%
viability, T/C [8]: 78.4%
viability, T/C [9]: 76.9%
viability, T/C [10]: 78%
viability, T/C [11]: 63.6%
viability, T/C [12]: 67.4%
viability, T/C [13]: 70.2%
viability, T/C [14]: 64.7%
viability, T/C [15]: 71.1%
viability, T/C [16]: 58.4%
viability, T/C [17]: 60.8%
viability, T/C [18]: 53.5%
viability, T/C [19]: 54.4%
viability, T/C [20]: 54.9%
viability, T/C [21]: 53.9%
viability, T/C [22]: 60.4%
viability, T/C [23]: 54.9%
viability, T/C [24]: 37.7%
viability, T/C [25]: 41.9%
viability, T/C [26]: 40.6%
viability, T/C [27]: 44.5%
viability, T/C [28]: 40.9%
viability, T/C [29]: 39.7%
viability, T/C [30]: 22%
viability, T/C [31]: 36.3%
viability, T/C [32]: 35.2%
viability, T/C [33]: 31.5%
viability, T/C [34]: 25%
viability, T/C [35]: 25.7%
viability, T/C [36]: 9.29%
